Where a name gives a salt, the structure may show the parent alone. Read-outs that look alike come from different tables or passages of the source.
Assays:
Acute toxicity in mice = conditions: mouse, in vivo
[1] = Antidepressant daily dose; format: in vivo; conditions: daily doses
Method: In comparison, daily doses of 200-300 mg of imipramine are recommended.

cardiovascular system = assay: Effect on the cardiovascular system (side-effects); format: in vivo; conditions: comparison in words
Text: Known tricyclic thymoleptics affect the cardiovascular and peripheral autonomic nervous systems causing a wide range of side-effects. Cardiac disturbances and varying degrees of hypotension occur rather frequently and may be very serious.

5HT-uptake = assay: Antagonism of p-chloroamphetamine (PCA)-induced 5HT-depletion from rat brain (5HT-uptake inhibitory activity); format: in vivo; conditions: for ED50: rat brain
Text: 5HT-uptake inhibitory activity
Antagonism of p-chloroamphetamine (PCA)-induced 5HT-depletion from rat brain: […]

[2] = daily doses; cited from earlier work

**Q.** Which results are given for `Fc1ccc(C2CCNCC2COc2ccc3c(c2)OCO3)cc1` (single isomer, unassigned) [GF 74, (-)-α-4-(4-Fluorophenyl)-3-(1,3-benzdioxolyl-(3))-oxymethyl piperidine maleate]?
**A.** LD50 (Acute toxicity in mice; oral administration): 500 mg/kg; LD50 (Acute toxicity in mice; sc, subcutaneous injection): 845 mg/kg; daily dose active as an antidepressant [1]: 15 to 25 mg; effect on the cardiovascular system compared with tricyclic thymoleptics (cardiovascular system): affect the cardiovascular system less than do the most common tricyclic thymoleptics

**Q.** Which results are given for `CN(C)CCCN1c2ccccc2CCc2ccccc21` [Imipramine]?
**A.** ED50 p.o., antagonism of PCA-induced 5HT-depletion (5HT-uptake; po, 3 h): +; ED50 (5HT-uptake; po, p.o., test drugs administered 2 hours before PCA, read-out: ED50 p.o., antagonism of PCA-induced 5HT-depletion): 44 mg/kg; ED50 (5HT-uptake; sc, test drugs administered s.c. simultaneously with PCA, read-out: ED50 s.c., antagonism of PCA-induced 5HT-depletion): 8 mg/kg; recommended daily dose [2]: 200 to 300 mg

Reference: patent publication US4007196A, “4-Phenylpiperidine compounds” (priority 1973, dated 1977)
